In general, Kd refers to the free concentration of one partner at which half of the binding sites on the other are occupied at equilibrium, for simple one-to-one binding. A high value points to weaker binding.

Experiment [1] concerns yjdF wt aptamer domain (Streptococcus ratti) (RNA, riboswitch) GGUAUAAAAACACAUUGCAGUUGGUAGUCUGCAAGCAUCAUCAGAUGUCAGUAACCUUCCCUCCAAGGUCGUCCCAUACC
The experiment in a line: SHAPE probing (protection of A4, A5). As to conditions: 150 mM K+, 3 mM Mg2+; 20 mM MOPS-KOH pH 7.0, 10 μM EDTA, 2.5 μM ligand, 21 °C.

Experiment [2] has the same test system. The experiment in a line: ligand fluorescence emission (10-fold increase). As to conditions: 100 mM K+, 5 mM Mg2+; 20 mM Mops pH 7.0, 10 μM EDTA, 50 nM ligand, 20 °C.
Experiment [3] has the same test system. The experiment in a line: ligand fluorescence emission (10-fold increase, 25 nm shift). As to conditions: 100 mM K+, 5 mM Mg2+; 20 mM Mops pH 7.0, 10 μM EDTA, 50 nM ligand, 20 °C.
Experiment [4] deals with yjdF wt aptamer domain (Staphylococcus aureus) (RNA, riboswitch) UAGAAGUGUAAAAACACAAUUGGGUUGGUAGUCCCAAUGCAGUUUUAAAACUGUCAGUAACCUUCCUCCUCGGGUUGUCCGUCAUUUCUA
The experiment in a line: SAXS; ribosome filter binding (ligand-dependent). As to conditions: 100 mM K+, 2.5 mM Mg2+ (SAXS); 20 mM Mops pH 7.0 (SAXS).

Experiment [5] deals with yjdF wt aptamer domain (Enterococcus pallens) (RNA, riboswitch) CGAGCAUAAAAACACGAGGCGGUUGGUAGUCCGCCGCAUGAAAAUGUCAGUAGCCUUCCCUCCCGGGUCGUCCAUUGCUCG
The experiment in a line: SEC (ligand-dependent folding). The settings on record: 100 mM K+, 5 mM Mg2+; 20 mM Mops pH 7.0, 10 μM EDTA; 60 nM chelerythrine in running buffer; indirect.

The subject of experiment [6] is yjdF wt aptamer domain (Staphylococcus aureus) (RNA, riboswitch) UAGAAGUGUAAAAACACAAUUGGGUUGGUAGUCCCAAUGCAGUUUUAAAACUGUCAGUAACCUUCCUCCUCGGGUUGUCCGUCAUUUCUA
The experiment in a line: ribosome filter binding (ligand-dependent). The settings on record: 100 mM NH4+, 5 mM Mg2+; 20 mM Hepes pH 7.0, 0.5 mM spermine; indirect.

Experiment [7] has as its system yjdF wt aptamer domain (Streptococcus ratti) (RNA, riboswitch) GGUAUAAAAACACAUUGCAGUUGGUAGUCUGCAAGCAUCAUCAGAUGUCAGUAACCUUCCCUCCAAGGUCGUCCCAUACC
Nature of the experiment: ligand fluorescence titration with RNA. The settings on record: 100 mM K+, 5 mM Mg2+; 20 mM Mops pH 7.0, 10 μM EDTA, 50 nM harmine; biphasic two-site Hill fit, site not stated.

Experiment [8] relates to circΔP3 (circ∆L3) (RNA, riboswitch) GAUGUCAGUAACCUUCCCUCCAAGGUCGUCCCAUACCGUUCGCGGUAUAAAAACACAUUGCAGUUGGUAGUCUGCAAGCAUC
The experiment in a line: ligand fluorescence titration with RNA. As to conditions: 100 mM K+, 5 mM Mg2+; 20 mM Mops pH 7.0, 10 μM EDTA, 50 nM harmine; biphasic two-site Hill fit, site not stated; nearly identical to wt.

Experiment [9] concerns yjdF TLC (T-loop chimera, Streptococcus ratti) (RNA, riboswitch) GGUAUAAAAACACAUUGCAGUUGGUAGUCUGCAAGCAUCAUCAGAUGUCAGUAACCGGUUCGAAUCCGGUCGUCCCAUACC
The experiment in a line: ligand fluorescence titration with RNA. As to conditions: 100 mM K+, 5 mM Mg2+; 20 mM Mops pH 7.0, 10 μM EDTA, 50 nM harmine; biphasic two-site Hill fit, site not stated; nearly identical to wt.

For `C[n+]1cc2c3c(ccc2c2ccc4cc5c(cc4c21)OCO5)OCO3`, the binding entry in [1] and in experiment [2] was “yes” in each case.
For the compound `COc1ccc2c(c[n+](C)c3c4cc5c(cc4ccc23)OCO5)c1OC`, the binding result in experiment [3], in experiment [4], in experiment [5] and in [1] was “yes” in each case.
As for `COc1ccc2c(c1)[nH]c1c(C)nccc12`, the binding result in experiment [6], in experiment [8] and in [9] was “yes” throughout. Further, the dissociation constant Kd in experiment [7] is 230 ± 30 nM.

(Values after article PMC9142559 (2022).)
